Patent publication US20170190671A1, “BIS(ARYL)CATECHOL DERIVATIVES AS HERBICIDES” (E I DU PONT DE NEMOURS AND COMPANY, priority 2014, published 2017)

Key:
corn (Zea mays) = assay: Test A postemergence; type: in vivo; conditions: Zea mays, post-emergence, 240 h, 0 to 100 scale
Summary of the method: (§1)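 Visual 0–100 rating (100 = complete control) taken about 10 d post-treatment relative to untreated checks. Preemergence: directed soil spray on sown loam/sand pots. Postemergence: seedlings 2–10 cm, 1–2 leaf. Non-phytotoxic solvent formulation with surfactant.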

kochia (Kochia scoparia) [1] = assay: Test A postemergence; type: in vivo; conditions: Bassia scoparia, post-emergence, 240 h, 0 to 100 scale, read-out: Plant response rating, Kochia
Summary of the method: as §1

[2] = tested on: blackgrass (Alopecurus myosuroides); assay: Test A postemergence; type: in vivo; conditions: Alopecurus myosuroides, post-emergence, 240 h, 0 to 100 scale, read-out: Plant response rating, Blackgrass
Summary of the method: as §1

[3] = tested on: Italian ryegrass (Lolium multiflorum); assay: Test A postemergence; type: in vivo; conditions: Lolium multiflorum, post-emergence, 240 h, 0 to 100 scale, read-out: Plant response rating, Ryegrass, Italian
Summary of the method: as §1

[4] = tested on: galium (catchweed bedstraw, Galium aparine); assay: Test A postemergence; type: in vivo; conditions: Galium, post-emergence, 240 h, 0 to 100 scale, read-out: Plant response rating, Galium
Summary of the method: as §1

[5] = tested on: wheat (Triticum aestivum); assay: Test A postemergence; type: in vivo; conditions: Triticum aestivum, post-emergence, 240 h, 0 to 100 scale, read-out: Plant response rating, Wheat
Summary of the method: as §1

[6] = tested on: pigweed (Amaranthus retroflexus); assay: Test A postemergence; type: in vivo; conditions: Amaranthus retroflexus, post-emergence, 240 h, 0 to 100 scale, read-out: Plant response rating, Pigweed
Summary of the method: as §1

[7] = tested on: giant foxtail (Setaria faberii); assay: Test A postemergence; type: in vivo; conditions: Setaria faberi, post-emergence, 240 h, 0 to 100 scale, read-out: Plant response rating, Foxtail, Giant
Summary of the method: as §1

[8] = tested on: ragweed (common ragweed, Ambrosia elatior); assay: Test A postemergence; type: in vivo; conditions: Ambrosia artemisiifolia, post-emergence, 240 h, 0 to 100 scale, read-out: Plant response rating, Ragweed
Summary of the method: as §1

[9] = tested on: barnyardgrass (Echinochloa crus-galli); assay: Test A postemergence; type: in vivo; conditions: Echinochloa crus-galli, post-emergence, 240 h, 0 to 100 scale, read-out: Plant response rating, Barnyardgrass
Summary of the method: as §1

[10] = tested on: Italian ryegrass (Lolium multiflorum); assay: Test C postemergence; type: in vivo; conditions: Lolium multiflorum, post-emergence, 336 h, Postemergence, scale 0 to 100, read-out: Plant response rating, Ryegrass, Italian
wild oat (Avena fatua) = assay: Test C postemergence; type: in vivo; conditions: Avena fatua, post-emergence, Postemergence, scale 0 to 100, read-out: Plant response rating, Oat, Wild
kochia (Kochia scoparia) [11] = assay: Test A preemergence; type: in vivo; conditions: Bassia scoparia, pre-emergence, 240 h, 0 to 100 scale (0 no effect, 100 complete control), read-out: Kochia plant response rating
Summary of the method: as §1

[12] = tested on: Italian ryegrass (Lolium multiflorum); assay: Test A preemergence; type: in vivo; conditions: Lolium multiflorum, pre-emergence, 240 h, 0 to 100 scale (0 no effect, 100 complete control), read-out: Ryegrass, Italian plant response rating
Summary of the method: as §1

[13] = tested on: pigweed (Amaranthus retroflexus); assay: Test A preemergence; type: in vivo; conditions: Amaranthus retroflexus, pre-emergence, 240 h, 0 to 100 scale (0 no effect, 100 complete control), read-out: Pigweed plant response rating
Summary of the method: as §1

[14] = tested on: giant foxtail (Setaria faberii); assay: Test A preemergence; type: in vivo; conditions: Setaria faberi, pre-emergence, 240 h, 0 to 100 scale (0 no effect, 100 complete control), read-out: Foxtail, Giant plant response rating
Summary of the method: as §1

[15] = tested on: ragweed (common ragweed, Ambrosia elatior); assay: Test A preemergence; type: in vivo; conditions: Ambrosia artemisiifolia, pre-emergence, 240 h, 0 to 100 scale (0 no effect, 100 complete control), read-out: Ragweed plant response rating
Summary of the method: as §1

[16] = tested on: barnyardgrass (Echinochloa crus-galli); assay: Test A preemergence; type: in vivo; conditions: Echinochloa crus-galli, pre-emergence, 240 h, 0 to 100 scale (0 no effect, 100 complete control), read-out: Barnyardgrass plant response rating
Summary of the method: as §1

[17] = tested on: ducksalad (Heteranthera limosa); assay: Test B flooded paddy; type: in vivo; conditions: Heteranthera limosa, 336 h; 250 g ai/ha, Flood, 13 to 15 days, scale 0 (no effect) to 100 (complete control); read-out: Plant response rating, Ducksalad
Summary of the method: (§2)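 Test compounds are applied straight into paddy water held 3 cm above the soil surface, with that flood maintained for the whole test. After 13 to 15 days in the greenhouse, each species is scored visually relative to controls.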

[18] = tested on: sedge, umbrella (small-flower umbrella sedge, Cyperus difformis); assay: Test B flooded paddy; type: in vivo; conditions: Cyperus difformis, 336 h; 250 g ai/ha, Flood, 13 to 15 days, scale 0 (no effect) to 100 (complete control); read-out: Plant response rating, Sedge, Umbrella
Summary of the method: as §2

[19] = tested on: barnyardgrass (Echinochloa crus-galli); assay: Test B flooded paddy; type: in vivo; conditions: Echinochloa crus-galli, 336 h; 250 g ai/ha, Flood, 13 to 15 days, scale 0 (no effect) to 100 (complete control); read-out: Plant response rating, Barnyardgrass
Summary of the method: as §2

rice (Oryza sativa) = assay: Test B flooded paddy; type: in vivo; conditions: Oryza sativa, 336 h; 250 g ai/ha, Flood, 13 to 15 days, scale 0 (no effect) to 100 (complete control); read-out: Plant response rating, Rice
Summary of the method: as §2

With `N#Cc1cccc(Oc2ncc(C(F)(F)F)cn2)c1Oc1ncc(Cl)cn1` [Compound 39, 2-[(5-chloro-2-pyrimidinyl)oxy]-3-[[5-(trifluoromethyl)-2-pyrimidinyl]oxy]-benzonitrile] as the compound, how does the Corn plant response rating (crop injury, 0 = no effect, 100 = complete kill) at 31 g/ha (corn (Zea mays); 31 g ai/ha) read?
Its Corn plant response rating (crop injury, 0 = no effect, 100 = complete kill) at 31 g/ha is 60%.

What about the Corn plant response rating (crop injury, 0 = no effect, 100 = complete kill) at 125 g/ha (corn (Zea mays); 125 g ai/ha) of the same compound?
Its Corn plant response rating (crop injury, 0 = no effect, 100 = complete kill) at 125 g/ha is 100%.

And the pest or weed control at 31 g/ha (kochia (Kochia scoparia) [1]; 31 g ai/ha)?
Its pest or weed control at 31 g/ha is 100%.

What about the pest or weed control at 125 g/ha (kochia (Kochia scoparia) [1]; 125 g ai/ha) of the same compound?
The pest or weed control at 125 g/ha was 100%.

And the pest or weed control at 31 g/ha ([2]; 31 g ai/ha)?
The pest or weed control at 31 g/ha was 80%.

And the pest or weed control at 125 g/ha ([2]; 125 g ai/ha)?
The pest or weed control at 125 g/ha was 100%.

What about the pest or weed control at 31 g/ha ([3]; 31 g ai/ha) of the same compound?
Its pest or weed control at 31 g/ha is 40%.

What about the pest or weed control at 125 g/ha ([3]; 125 g ai/ha) of the same compound?
The pest or weed control at 125 g/ha was 90%.

And the pest or weed control at 31 g/ha ([4]; 31 g ai/ha)?
The pest or weed control at 31 g/ha was 100%.

And the pest or weed control at 125 g/ha ([4]; 125 g ai/ha)?
Its pest or weed control at 125 g/ha is 100%.

And the plant injury at 31 g/ha ([5]; 31 g ai/ha)?
Its plant injury at 31 g/ha is 10%.

And the plant injury at 125 g/ha ([5]; 125 g ai/ha)?
Its plant injury at 125 g/ha is 90%.

What about the pest or weed control at 31 g/ha ([6]; 31 g ai/ha) of the same compound?
Its pest or weed control at 31 g/ha is 100%.

What about the pest or weed control at 125 g/ha ([6]; 125 g ai/ha) of the same compound?
Its pest or weed control at 125 g/ha is 100%.

And the pest or weed control at 31 g/ha ([7]; 31 g ai/ha)?
The pest or weed control at 31 g/ha was 100%.

What about the pest or weed control at 125 g/ha ([7]; 125 g ai/ha) of the same compound?
Its pest or weed control at 125 g/ha is 100%.

And the pest or weed control at 31 g/ha ([8]; 31 g ai/ha)?
The pest or weed control at 31 g/ha was 40%.

What about the pest or weed control at 125 g/ha ([8]; 125 g ai/ha) of the same compound?
The pest or weed control at 125 g/ha was 60%.

What about the pest or weed control at 31 g/ha ([9]; 31 g ai/ha) of the same compound?
The pest or weed control at 31 g/ha was 90%.

And the pest or weed control at 125 g/ha ([9]; 125 g ai/ha)?
Its pest or weed control at 125 g/ha is 90%.

What about the melting point of the same compound?
The melting point was 109 to 112 °C.

What about the pest or weed control at 31 g/ha ([10]; 31 g ai/ha) of the same compound?
The pest or weed control at 31 g/ha was 0%.

What about the pest or weed control at 62 g/ha ([10]; 62 g ai/ha) of the same compound?
Its pest or weed control at 62 g/ha is 5%.

And the pest or weed control at 125 g/ha ([10]; 125 g ai/ha)?
The pest or weed control at 125 g/ha was 10%.

And the pest or weed control at 31 g/ha (wild oat (Avena fatua); 31 g ai/ha)?
The pest or weed control at 31 g/ha was 5%.

And the pest or weed control at 62 g/ha (wild oat (Avena fatua); 62 g ai/ha)?
The pest or weed control at 62 g/ha was 10%.

And the pest or weed control at 125 g/ha (wild oat (Avena fatua); 125 g ai/ha)?
The pest or weed control at 125 g/ha was 15%.

What about the pest or weed control at 31 g/ha (kochia (Kochia scoparia) [11]; 31 g ai/ha) of the same compound?
Its pest or weed control at 31 g/ha is 90%.

What about the pest or weed control at 125 g/ha (kochia (Kochia scoparia) [11]; 125 g ai/ha) of the same compound?
Its pest or weed control at 125 g/ha is 100%.

What about the pest or weed control at 31 g/ha ([12]; 31 g ai/ha) of the same compound?
The pest or weed control at 31 g/ha was 10%.

What about the pest or weed control at 125 g/ha ([12]; 125 g ai/ha) of the same compound?
Its pest or weed control at 125 g/ha is 90%.

What about the pest or weed control at 31 g/ha ([13]; 31 g ai/ha) of the same compound?
Its pest or weed control at 31 g/ha is 100%.

And the pest or weed control at 125 g/ha ([13]; 125 g ai/ha)?
The pest or weed control at 125 g/ha was 100%.

And the pest or weed control at 31 g/ha ([14]; 31 g ai/ha)?
The pest or weed control at 31 g/ha was 100%.

And the pest or weed control at 125 g/ha ([14]; 125 g ai/ha)?
The pest or weed control at 125 g/ha was 100%.

And the pest or weed control at 31 g/ha ([15]; 31 g ai/ha)?
Its pest or weed control at 31 g/ha is 0%.

And the pest or weed control at 125 g/ha ([15]; 125 g ai/ha)?
Its pest or weed control at 125 g/ha is 40%.

What about the pest or weed control at 31 g/ha ([16]; 31 g ai/ha) of the same compound?
The pest or weed control at 31 g/ha was 80%.

And the pest or weed control at 125 g/ha ([16]; 125 g ai/ha)?
The pest or weed control at 125 g/ha was 100%.

What about the pest or weed control at 250 g/ha [17] of the same compound?
Its pest or weed control at 250 g/ha is 100%.

What about the pest or weed control at 250 g/ha [18] of the same compound?
The pest or weed control at 250 g/ha was 100%.

What about the pest or weed control at 250 g/ha [19] of the same compound?
The pest or weed control at 250 g/ha was 50%.

What about the plant injury at 250 g/ha (rice (Oryza sativa)) of the same compound?
Its plant injury at 250 g/ha is 50%.
